Measurements from US12297222B2, “CD206 targeted drug delivery vehicles carrying novel bisphosphonate drug payloads via a degradable linker” (Navidea Biopharmaceuticals, Inc., priority 2022, dated 2025).

How the values were obtained:
human macrophages [1] = experiment: Human macrophage cell culture assay: surface marker expression (MFI) by flow cytometry; format: cell-based
Description: (§1) GM-CSF induces the macrophages to adopt an activated phenotype that is intermediate between the extremes of M1 or M2. […] The macrophage cell cultures were incubated with the supplemented complete medium for 24 hours after which it was removed and replaced with fresh complete medium. The macrophage cultures were then incubated for an additional three days. The three-day post treatment incubation was performed to permit assessment of durable changes in macrophage phenotypes.
For each donor's macrophages, all experiments were run in triplicate.

human macrophages [2] = experiment: Human macrophage cell culture assay: viability (DAPI-) by flow cytometry; format: cell-based; settings: 24 hours treatment, then three days in fresh medium; any tested concentration
Description: as §1, with “phenotypes. […] For each donor's macrophages, all experiments were run in triplicate.” for “phenotypes.”

SMILES | expression levels of the evaluated surface markers (overall) (human macrophages [1]; FIG. 5, 80 μg of MAD-BIS-1 or equal molar free BIS-1, fold change in MFI vs saline) | changes in macrophage phenotype observed with MAD-BIS-1 (human macrophages [1]; free BIS-1 at any dose) | cell viability (human macrophages [2]) | expression level of the evaluated surface markers (overall) (human macrophages [1]; FIG. 8, free BIS-2)
CC(=O)c1sc(NCC(P(=O)(O)O)P(=O)(O)O)nc1C [BIS-1, 2-(4-methyl-5-acetylthiazole-2-yl-amino)ethylidene 1,1-bisphosphonic acid] | very little effect | could not be replicated | neither MAD-BIS-1 nor free BIS-1 decreased cell viability | –
CC(=O)c1cn(CC(C)(P(=O)(O)O)P(=O)(O)O)cn1 [BIS-2, 2-(4-acetylimidazole)ethylidene-1-methyl-1,1-bisphosphonic acid] | – | – | – | did not alter
